Results reported in the NIST ThermoML archive (doi:10.1021/je100615j).
Numbers after ± are expanded uncertainties.

Assay: mn = molality of the nth substance listed, in mol/kg
Details: 101.3 kPa, Liquid, Vibrating tube method

O=[N+]([O-])[O-].O=[N+]([O-])[O-].O=[N+]([O-])[O-].[Y+3] [yttrium nitrate] + O
mass density [kg/m3]
Details	m1 = 0.4989	m1 = 0.9965	m1 = 1.497	m1 = 1.982	m1 = 2.947	m1 = 3.945	m1 = 4.957
293.15 K	1105.5 ± 0.6	1202.6 ± 1.2	1290.8 ± 1.8	1368.7 ± 2.5	1502.8 ± 3.9	1615.7 ± 5.4	1708.9 ± 7
298.15 K	1103.5 ± 0.6	1200.2 ± 1.2	1287.8 ± 1.8	1365.4 ± 2.4	1498.9 ± 3.9	1611.4 ± 5.4	1704.3 ± 6.9
308.15 K	1099.2 ± 0.6	1194.7 ± 1.2	1281.4 ± 1.8	1358.2 ± 2.4	1490.5 ± 3.8	1602.2 ± 5.4	1694.7 ± 6.9

O=[N+]([O-])[O-].O=[N+]([O-])[O-].O=[N+]([O-])[O-].[Ce+3] [cerium nitrate] + O
mass density [kg/m3]
Details	m1 = 0.5112	m1 = 1.031	m1 = 1.555	m1 = 1.997	m1 = 3.131	m1 = 3.968	m1 = 4.462
293.15 K	1131.2 ± 0.8	1252.8 ± 1.5	1361.9 ± 2.3	1446.2 ± 3.1	1633.2 ± 5.4	1746.4 ± 7.1	1806 ± 8.1
298.15 K	1129.3 ± 0.8	1250.2 ± 1.5	1358.8 ± 2.3	1443.1 ± 3.1	1629.1 ± 5.4	1742.4 ± 7.1	1801.8 ± 8.1
308.15 K	1124.7 ± 0.7	1244.4 ± 1.5	1352 ± 2.3	1435.7 ± 3.1	1620.5 ± 5.3	1733.1 ± 7	1792.2 ± 8

O=[N+]([O-])[O-].O=[N+]([O-])[O-].O=[N+]([O-])[O-].[Nd+3] [neodymium(III) nitrate] + O
mass density [kg/m3]
Details	m1 = 0.522	m1 = 1.021	m1 = 1.555	m1 = 2.093	m1 = 3.086	m1 = 4.124	m1 = 4.297
293.15 K	1136.1 ± 0.8	1255.1 ± 1.5	1369.8 ± 2.4	1474.7 ± 3.4	1642.1 ± 5.4	1785.9 ± 7.6	1807 ± 8
298.15 K	1134.2 ± 0.8	1252.5 ± 1.5	1366.7 ± 2.4	1471.1 ± 3.4	1637.8 ± 5.4	1781.1 ± 7.6	1802.7 ± 8
308.15 K	1129.6 ± 0.8	1246.7 ± 1.5	1359.9 ± 2.3	1463.5 ± 3.3	1628.8 ± 5.3	1771.4 ± 7.5	1792.8 ± 7.9
